Reference: article PMC11219744, “Renal excretion of 1,2-dihydroxynaphthalene (DHN) in firefighting instructors after exposure to polycyclic aromatic hydrocarbons (PAHs) during live fire training” (Scientific Reports, 2024)
Each block holds one compound with its values, some of them ahead of it.

Legend:
[1] = Time to peak and initial elimination half-life of the urinary biomarkers (first-order model, linear mixed effects); assay type: in vivo, human
From the text: The initial half-life of each biomarker was estimated using statistical methods described previously[6],[32]. In short, we estimated the first-order elimination rate constant λ based on the model in Eq. (1):1 C=C0+B·e^λ·t+∈
Here, C is the creatinine-adjusted concentration in urine after the uptake phase, C0 is the baseline concentration before training, B is the difference from peak to baseline concentration, t is the time since peak concentration, and ϵ is the error term. […] Using package nlme[33] for the statistical environment R[34],[35], the model was fitted as a linear mixed effects model for the log concentration difference to baseline ln(C–C0) as the outcome. The model was fitted simultaneously for all data and included fixed effects for biomarker, time since peak, and their interaction term. It used random slopes for time since peak and random intercepts for […]. Errors were assumed to be autocorrelated according to an AR(1) process.

[2] = design: method as in PMID 32464238; conditions: by scheduled sampling time; cited from earlier work
[3] = Human biomonitoring: urinary excretion of PAH metabolites (GC–MS/MS, creatinine-normalised) in firefighting instructors before and after live fire training
Protocol: All study participants (n = 6) were male firefighting instructors from Germany. […] Before the start of the study, all subjects declared that they were non-smokers. Tattoo bearers were excluded before the start of the study as tattoo ink can be a potential source of polycyclic aromatic hydrocarbons. The authors declare that this research was conducted in accordance with the relevant regulations, including the Declaration of Helsinki. All subjects gave written informed consent after being informed about the study by the investigator.
Exposure to combustion products took place in several training sessions that simulated live fire conditions by burning a defined number of uncoated chipboards in an overseas container. The container was located in a hall with exhaust air purification. […] In addition, all subjects wore long-sleeved undergarments under their turnout gear. Only laundered clothing and cleaned equipment (e.g. helmets, masks) were used. The donning and doffing of clothing and protective equipment took place only in a smoke-free, well-ventilated area. Immediately after taking off the firefighters' gloves after training, the participants put on nitrile gloves for further undressing. After removing the helmet, flash hood and SCBA face shield, the participants put on particle filtering half masks (FFP3) to remove contaminated turnout jackets and trousers. After a break for rehydration and cool down still wearing their undergarments, the participants went to shower. […] The interval between two consecutive training sessions for each subject was at least six days. […] In this way, each subject was biomonitored at each of the five training sessions. All additional (unscheduled) urinations between the predefined times were also collected in separate containers and pooled afterwards with the next scheduled sample. […] A total of 270 samples were to be collected using this procedure for all participants and five training sessions of each individual. Subjects completed a questionnaire for each sampling period to account for possible pre-exposure or concurrent exposure to PAHs from sources other than the fire simulation unit, such as occupational exposure to combustion products, exposure to tobacco smoke (active/passive) and barbecue activities, and consumption of smoked or charbroiled foods.
In brief, the analytes were extracted by liquid–liquid extraction with n-hexane after enzymatic hydrolysis of the urine samples with ß-glucuronidase/arylsulfatase (isolated from helix pomatia) and derivatised by silylation with N-trimethylsilyl-N-methyl trifluoroacetamide afterwards. […] All standards were obtained from LGC-Standards, Wesel, Germany.
DHN in urine was determined referring to a method described in detail by Klotz et al.[29]. […] External calibration with internal standardisation by an isotopically labelled analogue of the target compound was done by analysis of pool urine samples spiked with the glucuronides of DHN and D6-1,2-dihydroxynaphthalene (internal standard) before enzymatic hydrolysis. Both standards are not commercially available and were obtained as a gift from the Institute of Occupational, Social and Environmental Medicine at the University of Erlangen-Nuremberg (Germany). A detailed description of the synthesis of the compounds is given by[26]. […] Up to now, there is no external quality assessment scheme available for DHN.
Urinary creatinine was analysed in the Institute of Clinical Chemistry and Laboratory Medicine of University Medical Centre of the Johannes Gutenberg University Mainz using a photometrical assay based on the method of[30].

[4] = upper margin of internal exposure typically found in smokers; cited from earlier work
[5] = cited from earlier work
[6] = urinary excretion, time after onset of exposure

half-life ([1]; male, human, initial elimination half-life after peak excretion, urine, read-out: Estimated half-life, mean (converted)): 5.2 h
Time to peak, median [1, 6]: 3.3 h
Time to peak, range [1, 6]: 2.2 to 11.2 h
Proportion in the total excretion of the three naphthalene metabolites ([3]; after exposure (after sampling 3, rest of the sampling period), based on median concentrations): lower than 10%
Increase in concentration from before exposure up to the maximum of excretion, factor ([3]; male, human, in vivo): about 6
Concentration in urine, IQR ([3]; male, human, in vivo, 0 h): 4.55–9.78 µg/g creatinine
Concentration in urine, range ([3]; male, human, in vivo, 0 h): 2.07–42.68 µg/g creatinine
Concentration in urine, IQR ([3]; male, human, in vivo, 1 h): 11.05–18.20 µg/g creatinine
Concentration in urine, median ([3]; male, human, in vivo, 1 h): 11.96 µg/g creatinine
Concentration in urine, range ([3]; male, human, in vivo, 1 h): 3.97–58.89 µg/g creatinine
Concentration in urine, median ([3]; male, human, in vivo, 2 h): 7.42 µg/g creatinine
Concentration in urine, IQR ([3]; male, human, in vivo, 3 h): 8.14–14.40 µg/g creatinine
Concentration in urine, median ([3]; male, human, in vivo, 3 h): 10.07 µg/g creatinine
Concentration in urine, range ([3]; male, human, in vivo, 3 h): 5.62–23.16 µg/g creatinine
Concentration in urine, IQR ([3]; male, human, in vivo, 6 h): 3.62–7.98 µg/g creatinine
Concentration in urine, median ([3]; male, human, in vivo, 6 h): 5.12 µg/g creatinine
Concentration in urine, range ([3]; male, human, in vivo, 6 h): 1.17–12.78 µg/g creatinine
Concentration in urine, IQR ([3]; male, human, in vivo, 9 h): 2.34–5.27 µg/g creatinine
Concentration in urine, median ([3]; male, human, in vivo, 9 h): 3.48 µg/g creatinine
Concentration in urine, range ([3]; male, human, in vivo, 9 h): 1.30–11.32 µg/g creatinine
Concentration in urine, IQR ([3]; male, human, in vivo, 11 h): 1.76–4.19 µg/g creatinine
Concentration in urine, median ([3]; male, human, in vivo, 11 h): 3.14 µg/g creatinine
Concentration in urine, range ([3]; male, human, in vivo, 11 h): 1.08–10.02 µg/g creatinine
Concentration in urine, IQR ([3]; male, human, in vivo, 18 h): 1.93–4.24 µg/g creatinine
Concentration in urine, median ([3]; male, human, in vivo, 18 h): 3.26 µg/g creatinine
Concentration in urine, range ([3]; male, human, in vivo, 18 h): 1.02–14.56 µg/g creatinine
Median increase in morning urine after exposure (sampling 9) vs. before (sampling 1) ([3]; male, human, in vivo, 18 h): 1.5 fold
Concentration in urine, IQR ([3]; male, human, in vivo, -0.4 h): 1.13–3.47 µg/g creatinine
Concentration in urine, median ([3]; male, human, in vivo, -0.4 h): 1.94 µg/g creatinine
Concentration in urine, range ([3]; male, human, in vivo, -0.4 h): 0.21–10.94 µg/g creatinine
Concentration in urine, IQR ([3]; male, human, in vivo, -4.2 h): 1.18–2.88 µg/g creatinine
Concentration in urine, median ([3]; male, human, in vivo, -4.2 h): 2.00 µg/g creatinine
Concentration in urine, range ([3]; male, human, in vivo, -4.2 h): 0.30–10.02 µg/g creatinine
Median increase from baseline (sample 2) to peak excretion ([3]; peak: sample 5 for 1-PYR, sample 4 otherwise): 6.6 fold
SMILES: Oc1ccc2ccccc2c1 [2-NAP, 2-hydroxynaphthalene]
Time of peak excretion after the end of the training session [2]: 1 h
95th percentile of urinary concentration in smokers [4]: 29.0 µg/g crea.

SMILES: c1ccc2ccccc2c1 [NAP, naphthalene]
IARC carcinogenicity category [5]: group 2B (possibly carcinogenic to humans)
